Consider one compound from patent US20210261583A1, “Synthetic Cytotoxic Molecules, Drugs, Methods of Their Synthesis and Methods of Treatment” (The Regents of the University of California, priority 2018, published 2021).

The nature of series [1]: Racemization/epimerization, deuterium incorporation and cyclization in protic solvents. To be noted: dissolved in protic solvents such as water and MeOH; gives 1:1 mixture of enantiomers or epimers. The class given is physicochemical. On the procedure:
In the presence of D2O at room temperature, deuterium was incorporated at C-2 confirming a fast enolization followed by β-elimination and ring closure. […] The incorporation of deuterium is complete in 30 min at pH=10, and in 3 hours at pH=7.
It was therefore decided to further investigate this new structural analog and we prepared the bicyclic enantiopure pyrrolizidine 17 bearing the aryloctyl appendage on C-3, in analogy with our lead compound 3 as well as the monocyclic variant 18, to check the effect of the substituent position and the nature of the azacycles (FIG. 7).

For a further series, the system named is cancer cells. Nature of the series: Cytotoxicity (IC50). The class given is cell-based.
In another series the test system is CD98. Nature of the series: Nutrient transporter (CD98) down-regulation. In kind it is cell-based.

By IC50 is commonly meant the concentration that gives 50% inhibition. A low value points to inhibition by little substance. A word on the inhibition: it is the share of the control response that was lost under treatment. Low readings indicate a weak effect, high ones a strong effect. In the case of `CCCCCCCCc1ccc(C(=O)C[C@@H]2C[C@@H](O)CN2)cc1.Cl` [Compound 11, (2S,4R)-4-Hydroxy-2-(2-(4-octylphenyl)-2-oxoethyl)pyrrolidin-1-ium chloride], the “racemization / epimerization after N-Boc deprotection” value in series [1] is “prone to racemization and epimerization”. The same compound registered an IC50 with cancer cells of 2100 nM. The inhibition at 2.5 µM in the series on CD98 (2.5 μM) was determined as 22%. In addition, 10 µM produced 46% inhibition in the series on CD98 (10 μM).
